Source: patent US7723289B2, “PIF tetrapeptides” (BioIncept, LLC, priority 2003, dated 2010)

Key:
[1] = system: PBMC; test: FITC-labeled PIF binding to PBMC subpopulations (flow cytometry); design: species or system human; conditions: PBMC within 24 hrs of PHA activation
Method: Expression of PIF-1(15) (SEQ ID NO:1), receptor following PHA induced PBMC proliferation CD-4 T cells; CD-8 T cells; NK cell and B cells (unstimulated-top); (PHA stimulated-bottom). Flow cytometry analysis of PBMC following exposure to FITC sPIF-1(15) (SEQ ID NO:13) % expression was determined in PBMC subtypes before and after exposure to 1 ug/ml PHA for 24 hours.
Human PBMC were isolated by the Ficoll method. FITC-labeled nPIF-115 (SEQ ID NO: 1) and (FITC)-labeled scrPIF-1 (SEQ ID NO:5) and match-size irrelevant peptide (FITC)-labeled negative controls negPIF-1(15) (SEQ ID NO:11), were dissolved in PBS at concentrations ranging from 0.75 to 48.19 μM, and were incubated with 500,000 lymphocytes for 1 h at room temperature. The cells were washed 6 times with PBS and resuspended in 500 μl of the same buffer. T-cells and monocytes identification was performed in independent experiments by incubation with anti-CD3 and anti-CD14 antibody-phycoerithryn (PE) labeled. nPIF-115 (SEQ ID NO: 1) binding to PBMC was determined by flow cytometry. In addition, rosettes formed by T cell-platelets were detected by flow cytometry using anti-CD3 antibody-PE and anti-CD41a antibody-FITC (all antibodies were from Pharmingen Inc.).
Using flow cytometry fluoroscein-labeled sPIF-115 (SEQ ID NO: 13) binding to immune cells was examined on resting PBMC.

[2] = system: mouse splenocytes; test: FITC peptide binding to mouse splenocytes with 100 fold excess unlabeled peptide; design: species or system C57Bl/6 mice; conditions: 300 nM FITC peptide, 100 fold excess unlabeled PIF
Method: Virgin female C57Bl/6 mice were sacrificed and spleen cells were isolated and placed in AIM V culture media with 300 nM FITC PIF-1 (15)+/−100 fold excess unlabeled PIF. Following incubation cells were placed in a flow cytometry and the percentage of cells stained examined.
Splenocytes from virgin female C57BL/6 mice were stained with 300 nM of PIF-1-FITC or scrPIF-1-FITC. Filled histograms indicated PIF-1-FITC or scrPIF-1-FITC alone. Empty histograms represent PIF-1-FITC or scrPIF-1-FITC staining in the presence of 100-fold excess of corresponding unlabeled peptide. Histograms represent both monocytes and lymphocytes according to scatter gating.
Cells were evaluated using flow cytometry determining labeled cells population Filled histograms indicate PIF-FITC or scrPIF-FITC alone. […] Empty histograms represent PIF-FITC or scrPIF-FITC staining in the presence of 100-fold excess of corresponding unlabeled peptide. Histograms represent both monocytes and lymphocytes according to scatter gating.

[3] = Whole body distribution of FITC labeled PIF-1 after IV and IP injection; format: in vivo, rats
Method: In a further experiment, PIF presence in the spleen was confirmed in vivo, In addition, PIF presence in the cecum, bone marrow and uterus was determined. Adult female rats were injected FITC labeled PIF-1 500 nM in 100 ul volume IV and IP (Eric Solon QPS Inc). 5 and 30 minutes later rats were sacrificed and snap frozen in hexane embedded in frozen media. Whole body 40 um cryo sectioned were obtained and scaaned with a 9140 Typhoon bioimage scanner at a FITC excitation length.

With “FITC sPIF-1(15): sPIF-1(15) labeled on N-terminus with fluorescein isothyocyanate via b-alanine spacer” the “B cells positive for fluorescent PIF binding” value [1] was > 90%, the “T lymphocytes positive for fluorescent PIF binding” value [1] was 60-80% and the “dissociation of FITC PIF from the PIF receptor by unlabeled peptide” value [2] was > 90%. The IP pick up ([3]; 500 nM in 100 ul IP, 5 and 30 minutes) was “slower with major collection in the cecum”, the “organs with specific pick up” value ([3]; 500 nM in 100 ul IV, 5 and 30 minutes) was “spleen, bone marrow and uterus” and the elimination ([3]; IV injected, FIG. 19) was “rapid elimination by the kidney”.
